Reference: patent publication US20250186562A1, “TARGET SUBSTRATE PROTEIN DEGRADATION PLATFORM” (The Regents of the University of California, priority 2022, published 2025)
Non-standard residues stand in square brackets, D forms with d. Residues, ends and D or L forms follow the SMILES beside them. No end group written: not given here. ξ: configuration not given here. Tyr(3-NO2) = N[C@@H](Cc1ccc(O)c([N+](=O)[O-])c1)C(=O)O; dPhe(4-guanidino) = N=C(N)Nc1ccc(C[C@@H](N)C(=O)O)cc1; fluorescein = fluorescein attached to the C-terminus; Phe(4-guanidino) = N=C(N)Nc1ccc(C[C@H](N)C(=O)O)cc1; Tyr(3-F) = N[C@@H](Cc1ccc(O)c(F)c1)C(=O)O; Arg(Me2a) = CN(C)C(=N)NCCC[C@H](N)C(=O)O; Phe(4-NH2) = Nc1ccc(C[C@H](N)C(=O)O)cc1; His(τ-Me) = Cn1cnc(C[C@H](N)C(=O)O)c1; His(π-Me) = Cn1cncc1C[C@H](N)C(=O)O; 4Pal = N[C@@H](Cc1ccncc1)C(=O)O; 2Thi = N[C@@H](Cc1cccs1)C(=O)O; Ile(3ξ) = CCC(C)[C@H](N)C(=O)O

Key:
GST-Ubr-box of Ubr2 = GST-Ubr-box of Ubr2 (Homo sapiens (Human), UniProt Q8IWV8); assay: Competition fluorescence polarization (FP) assay, GST-Ubr-box of Ubr2; assay type: binding; details: read-out: UBR2 Affinity Ki FP
Source text: (§1) Fluorescence Polarization (FP) assays were used to determine binding affinity of the peptidomimetic compounds for the Ubr box (FIGS. 4A-B). FIG. 1A depicts the mechanism of action of peptidomimetic compounds that include a linker. […] Binding affinities as determined by Structure Activity Relationship Studies (SARs) of additional peptidomimetic compounds to GST-Ubr-box of Ubr 1 and Ubr2 are shown in Table 1.
(§2) The FP assay uses a tetrapeptide with a sequence arginine-isoleucine-phenylalanine-serine (RIFS) with fluorescein attached to the C-terminus as tracer that was previously shown to bind to the Ubr-boxes of Ubr1 and Ubr2 with similar binding affinity. Assays were developed in 384-well plates, which were read on a Clariostar Reader. Signal-to-background ratio (S/B) was optimized by varying concentrations of GST-Ubr-box and tracer concentrations. GST-fusion proteins were used due to its larger size than Ubr-box alone to increase the FP effect. […] The optimized condition includes receptor concentration [GST-UBR1]=2 μM, tracer concentration [tracer]=9 nM, and the highest concentration of unlabeled peptidomimetic compound competitors at 200 μM with 3× serial dilutions.
(§3) Preliminary ITC measurements confirmed the FP measurements (FIG. 4C).

GST-Ubr-box of Ubr1 = GST-Ubr-box of Ubr1 (Homo sapiens (Human), UniProt Q8IWV7); assay: Competition fluorescence polarization (FP) assay, GST-Ubr-box of Ubr1; assay type: binding; details: for Ki: [GST-UBR1]=2 μM, tracer 9 nM, read-out: UBR1 Affinity Ki FP
Source text: as §1, §2, §3

Ubr-box of Ubr2 = Ubr-box of Ubr2 (Homo sapiens (Human), UniProt Q8IWV8); assay: FP titration of GST-Ubr-box into tracer, Ubr2; assay type: binding; details: 9 nM tracer
Source text: as §2, §3

Ubr-box of Ubr1 = Ubr-box of Ubr1 (Homo sapiens (Human), UniProt Q8IWV7); assay: FP titration of GST-Ubr-box into tracer, Ubr1; assay type: binding; details: 9 nM tracer
Source text: as §2, §3

[1] = test system: Ubr-mediated GFP degradation (Ubiquitin-R-GFP model Ubr substrate); assay: R-GFP degradation in cells (fluorescent imaging); assay type: cell-based; details: cells expressing Ubiquitin-R-GFP
Source text: The peptidomimetic compound outcompetes the R-GFP model Ubr substrate for E3 binding, therefore preventing GFP degradation. The upper panels show fluorescent imaging of the cells and the lower panel show a bright field of the cells.

ERRα protein = ERRα protein (Homo sapiens (Human), UniProt P11474); assay: ERRα protein level in Hela cells by Western blot; assay type: cell-based; details: Hela cells treated overnight at 100 nM, 33.3 nM, and 11.1 nM; Western blot of whole cell lysates
Procedure: In this experiment, Hela cells were treated overnight at a concentration of 100 nM, 33.3 nM, and 11.1 nM with the above peptidomimetic compound. The ERRα protein was detected by Western blot from whole cell lysates. Glyceraldehyde 3-phosphate dehydrogenase (GAPDH) was blotted as loading control.

Chain of GST-Ubr-box of Ubr1 (Q8IWV7 other isoform, or with tags, fused parts or gaps): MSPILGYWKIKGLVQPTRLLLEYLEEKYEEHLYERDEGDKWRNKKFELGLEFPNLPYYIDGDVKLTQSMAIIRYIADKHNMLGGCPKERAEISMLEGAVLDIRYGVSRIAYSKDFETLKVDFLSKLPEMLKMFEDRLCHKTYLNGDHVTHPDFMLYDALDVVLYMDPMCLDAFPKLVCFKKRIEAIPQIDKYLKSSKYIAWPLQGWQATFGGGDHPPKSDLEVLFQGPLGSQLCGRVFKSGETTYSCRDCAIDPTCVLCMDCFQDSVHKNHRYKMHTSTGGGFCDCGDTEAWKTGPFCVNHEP
Chain of GST-Ubr-box of Ubr2 (Q8IWV8 other isoform, or with tags, fused parts or gaps): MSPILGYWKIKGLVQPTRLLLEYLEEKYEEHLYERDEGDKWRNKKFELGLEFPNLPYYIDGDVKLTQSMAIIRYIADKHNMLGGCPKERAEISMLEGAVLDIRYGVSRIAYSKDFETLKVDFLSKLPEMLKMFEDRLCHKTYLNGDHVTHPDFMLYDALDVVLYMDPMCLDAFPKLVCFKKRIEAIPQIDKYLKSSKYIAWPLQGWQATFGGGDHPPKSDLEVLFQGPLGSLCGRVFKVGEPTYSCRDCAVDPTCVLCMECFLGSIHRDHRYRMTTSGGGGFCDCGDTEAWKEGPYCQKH
Chain of Ubr-box of Ubr1 (Q8IWV7 other isoform, or with tags, fused parts or gaps): as the sequence (Q8IWV7 other isoform, or with tags, fused parts or gaps) above
Chain of ERRα protein (P11474 whole entry): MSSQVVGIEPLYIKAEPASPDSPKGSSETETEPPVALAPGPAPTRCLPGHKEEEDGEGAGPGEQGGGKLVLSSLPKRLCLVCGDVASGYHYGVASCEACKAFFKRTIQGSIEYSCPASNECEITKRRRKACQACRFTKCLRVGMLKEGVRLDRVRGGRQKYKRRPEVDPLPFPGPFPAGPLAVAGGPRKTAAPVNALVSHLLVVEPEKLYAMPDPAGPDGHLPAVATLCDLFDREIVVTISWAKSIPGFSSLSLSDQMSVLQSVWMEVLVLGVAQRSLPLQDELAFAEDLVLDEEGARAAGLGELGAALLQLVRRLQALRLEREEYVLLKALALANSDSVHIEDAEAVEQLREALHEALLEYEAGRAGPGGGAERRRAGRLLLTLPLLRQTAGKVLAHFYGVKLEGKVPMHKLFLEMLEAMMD
Chain of Ubr-box of Ubr2 (Q8IWV8 other isoform, or with tags, fused parts or gaps): as the sequence (Q8IWV8 other isoform, or with tags, fused parts or gaps) above

Row | Molecule | Ki (GST-Ubr-box of Ubr2) [µM] | Ki (GST-Ubr-box of Ubr1) [µM] | also measured
1 | CC[C@H](C)[C@H](NC(=O)[C@@H](N)Cc1ccc(NC(N)=O)cc1)C(=O)N[C@@H](Cc1ccccc1)C(N)=O [Compound 5] | 10 to 100 | > 100 | –
2 | CN(C)C(=N)NCCC[C@H](N)C(=O)N[C@@H](Cc1cscn1)C(=O)N[C@@H](Cc1ccccc1)C(N)=O [Compound 29] | 1 to 10 | 1 to 10 | –
3 | CC(C[C@H](NC(=O)[C@@H](N)CCCNC(=N)N)C(=O)N[C@@H](Cc1ccccc1)C(N)=O)C(F)(F)F (some centres unmarked) [Compound 26] | < 1 | < 1 | –
4 | CCC(C)C(NC(=O)[C@@H](N)CCCNC(=N)N)C(=O)N[C@@H](Cc1ccccc1)C(N)=O (some centres unmarked) [Compound 27] | 1 to 10 | 1 to 10 | –
5 | unlabeled tetrapeptide: unlabeled tetrapeptide (RIFS sequence without fluorescein tag) used as competitor [reference compound] | – | – | displacement of tracer (GST-Ubr-box of Ubr1): Effective displacement of tracer
6 | CCC(C)[C@H](NC(=O)[C@@H](N)Cc1ccc(NC(C)=O)cc1)C(=O)N[C@@H](Cc1ccccc1)C(N)=O (some centres unmarked) [Compound 24] (H-[Phe(4-NH2)](Ac)-[Ile(3ξ)]-Phe-NH2) | 10 to 100 | 10 to 100 | –
7 | N=C(NCCC[C@H](N)C(=O)N[C@@H](Cc1ccc(O)c(Cl)c1)C(=O)N[C@@H](Cc1ccccc1)C(N)=O)NCC(F)(F)F [Compound 20] | < 1 | < 1 | –
8 | CC[C@H](C)[C@H](NC(=O)[C@@H](N)Cc1nn[nH]n1)C(=O)N[C@@H](Cc1ccccc1)C(N)=O [Compound 8] | > 100 | > 100 | –
9 | CC[C@H](C)[C@H](NC(=O)[C@@H](N)Cc1cncn1C)C(=O)N[C@@H](Cc1ccccc1)C(N)=O [Compound 10] (H-[His(π-Me)]-Ile-Phe-NH2) | > 100 | > 100 | –
10 | CNC(=N)N(C)CCC[C@H](N)C(=O)N[C@@H](Cc1ccc(O)c(C)c1)C(=O)N[C@@H](Cc1ccccc1)C(N)=O [Compound 7] | 10 to 100 | 10 to 100 | –
11 | NC(=O)[C@H](Cc1ccccc1)NC(=O)[C@@H](N)Cc1ccc(O)c([N+](=O)[O-])c1 [Compound 18] (H-[Tyr(3-NO2)]-Phe-NH2) | > 100 | > 100 | –
12 | tracer: tetrapeptide arginine-isoleucine-phenylalanine-serine (RIFS) with fluorescein attached to the C-terminus as tracer (RIFS-fluorescein) | – | – | binding of tracer to Ubr-box of Ubr2 (Ubr-box of Ubr2): can bind; binding of tracer to Ubr-box of Ubr1 (Ubr-box of Ubr1): can bind
13 | CC[C@H](C)[C@H](NC(=O)[C@@H](N)Cc1ccncc1)C(=O)N[C@@H](Cc1ccccc1)C(N)=O [Compound 23] (H-[4Pal]-Ile-Phe-NH2) | > 100 | > 100 | –
14 | CC[C@H](C)[C@H](NC(=O)[C@H](Cc1ccccc1)NC(=O)[C@@H](N)Cc1ccncc1)C(N)=O [Compound 22] (H-[4Pal]-Phe-Ile-NH2) | > 100 | > 100 | –
15 | CN(C)C(=N)NCCC[C@H](N)C(=O)N1CCC[C@H]1C(=O)N[C@@H](Cc1ccccc1)C(N)=O [Compound 31] (H-[Arg(Me2a)]-Pro-Phe-NH2) | > 100 | > 100 | –
16 | CCNC(=N)N(CC)CCC[C@H](N)C(=O)N[C@H](C(=O)N[C@@H](Cc1ccccc1)C(N)=O)[C@@H](C)CC [Compound 9] | 10 to 100 | 10 to 100 | –
17 | NCC(=O)N[C@@H](Cc1ccc(O)c([N+](=O)[O-])c1)C(N)=O [Compound 17] (H-Gly-[Tyr(3-NO2)]-NH2) | > 100 | > 100 | –
18 | CC[C@H](C)[C@H](NC(=O)[C@@H](N)CCCNC(=N)NCC(F)(F)F)C(=O)N[C@@H](Cc1ccccc1)C(N)=O [Compound 4] | < 1 | < 1 | concentration at which R-GFP degradation in cells is blocked [1]: > 1 µM

Row | Molecule | Ki (GST-Ubr-box of Ubr2) [µM] | Ki (GST-Ubr-box of Ubr1) [µM] | also measured
19 | CC[C@H](C)[C@H](NC(=O)[C@@H](N)CCC/N=C(\N)N(C)C)C(=O)N[C@@H](Cc1ccccc1)C(N)=O [Compound 32] (H-[Arg(Me2a)]-Ile-Phe-NH2) | 1 to 10 | 1 to 10 | –
20 | CC[C@H](C)[C@H](NC(=O)[C@@H](N)Cc1cccs1)C(=O)N[C@@H](Cc1ccccc1)C(N)=O [Compound 21] (H-[2Thi]-Ile-Phe-NH2) | > 100 | > 100 | –
21 | N=C(N)NCCC[C@H](N)C(=O)N[C@@H](Cc1ccc(O)c([N+](=O)[O-])c1)C(=O)N[C@@H](Cc1ccccc1)C(N)=O [Compound 1] | 1 to 10 | 1 to 10 | –
22 | CN(C)C(=N)NCCC[C@H](N)C(=O)N[C@@H](Cc1ccc(O)c(F)c1)C(=O)N[C@@H](Cc1ccccc1)C(N)=O [Compound 28] (H-[Arg(Me2a)]-[Tyr(3-F)]-Phe-NH2) | 1 to 10 | < 1 | –
23 | CC[C@H](C)[C@H](NC(=O)[C@@H](N)CCCN(C)C(=N)NC)C(=O)N[C@@H](Cc1ccccc1)C(N)=O [Compound 6] | > 100 | > 100 | –
24 | COc1ccc(C[C@H](NC(=O)[C@H](N)Cc2ccc(N=C(N)N)cc2)C(=O)N[C@@H](Cc2ccccc2)C(N)=O)cc1 [Compound 16] (H-[dPhe(4-guanidino)]-Tyr(Me)-Phe-NH2) | < 1 | < 1 | –
25 | COc1ccc(C[C@H](NC(=O)[C@@H](N)CCCNC(=N)N(C)C)C(=O)N[C@@H](Cc2ccccc2)C(N)=O)cc1 [Compound 15] (H-[Arg(Me2a)]-Tyr(Me)-Phe-NH2) | < 1 | < 1 | –
26 | CC[C@H](C)[C@H](NC(=O)[C@@H](N)Cc1cn(C)cn1)C(=O)N[C@@H](Cc1ccccc1)C(N)=O [Compound 13] (H-[His(τ-Me)]-Ile-Phe-NH2) | > 100 | > 100 | –
27 | CN(C)C(=N)NCCC[C@H](N)C(=O)N[C@@H](Cc1cccs1)C(=O)N[C@@H](Cc1ccccc1)C(N)=O [Compound 30] | 1 to 10 | < 1 | –
28 | N=C(N)NCCC[C@H](N)C(=O)N[C@@H](Cc1ccc(O)c(Cl)c1)C(=O)N[C@@H](Cc1ccccc1)C(N)=O [Compound 25] | 10 to 100 | 1 to 10 | –
29 | N=C(NCCC[C@H](N)C(=O)N[C@@H](Cc1ccc(O)c([N+](=O)[O-])c1)C(=O)N[C@@H](Cc1ccccc1)C(N)=O)NCC(F)(F)F [Compound 33] | < 1 | < 1 | –
30 | COc1cc(/C=C2\SC(=O)N(Cc3cn(CCCNC(=O)[C@H](Cc4ccccc4)NC(=O)[C@H](Cc4ccc(O)c([N+](=O)[O-])c4)NC(=O)[C@@H](N)CCCNC(=N)NCC(F)(F)F)nn3)C2=O)ccc1Oc1ccc(C#N)cc1C(F)(F)F [above peptidomimetic compound] | – | – | levels of the ERRα protein in cells (ERRα protein): reduction of levels of the ERRα protein
31 | CC[C@H](C)[C@H](NC(=O)[C@@H](N)CCONC(=N)N)C(=O)N[C@@H](Cc1ccccc1)C(N)=O [Compound 3] | 10 to 100 | 10 to 100 | –
32 | COc1ccc(C[C@H](NC(=O)[C@@H](N)CCCNC(=N)NCC(F)(F)F)C(=O)N[C@@H](Cc2ccccc2)C(N)=O)cc1 [Compound 14] | < 1 | < 1 | –
33 | CNC(=N)N(C)CCC[C@H](N)C(=O)N[C@@H](Cc1ccc(O)c([N+](=O)[O-])c1)C(=O)N[C@@H](Cc1ccccc1)C(N)=O [Compound 11] | 1 to 10 | 10 to 100 | –
34 | CNC(=N)N(C)CCC[C@H](N)C(=O)N[C@@H](Cc1ccc(O)c([N+](=O)[O-])c1)C(=O)N[C@@H](Cc1ccccc1)C(N)=O [Compound 12] | < 1 | 1 to 10 | –
35 | CC[C@H](C)[C@H](NC(=O)[C@@H](N)Cc1ccc(N=C(N)N)cc1)C(=O)N[C@@H](Cc1ccccc1)C(N)=O [Compound 2] (H-[Phe(4-guanidino)]-Ile-Phe-NH2) | < 1 | 1 to 10 | –
36 | CN(C)C(=N)NCCC[C@H](N)C(=O)N[C@@H](Cc1ccc(O)c([N+](=O)[O-])c1)C(=O)N[C@@H](Cc1ccccc1)C(N)=O [Compound 19] (H-[Arg(Me2a)]-[Tyr(3-NO2)]-Phe-NH2) | < 1 | < 1 | –
